What follows are compounds tested against T1, Dimer of Gag-Pol polyprotein [489-587] (Human immunodeficiency virus 1, UniProt P12497) (assay: Protease Inhibition Assay). Settings: pH 5.5; 30 °C.
T1 construct: 489-587

SMILES | IC50 [nM]
CC(C)(C)CC(=O)N[C@@H](Cc1ccccc1)[C@@H](O)C[C@]1(Cc2ccccc2)N=CC(C2c3ccccc3[C@H]3NC(=O)O[C@@H]23)C1=O (stereo partly drawn) [N-[(2S,3S)-4-[(2S)-4-[(3aR,8aS)-2-oxo-2H,3H,3aH,8H,8aH-indeno[1,2-d][1,3]oxazol-8-yl]-2-benzyl-3-oxo-2,3-dihydro-1H-pyrrol-2-yl]-3-hydroxy-1-phenylbutan-2-yl]-3,3-dimethylbutanamide] | 96
NC(=O)O[C@@H]1Cc2ccccc2C1C1C=N[C@@](Cc2ccccc2)(C[C@H](O)[C@H](Cc2ccccc2)NC(=O)O[C@H]2CCOC2)C1=O (stereo partly drawn) [(3S)-oxolan-3-yl N-[(2S,3S)-4-[(2S)-2-benzyl-4-[(2R)-2-(carbamoyloxy)-2,3-dihydro-1H-inden-1-yl]-3-oxo-2,3-dihydro-1H-pyrrol-2-yl]-3-hydroxy-1-phenylbutan-2-yl]carbamate] | 2
CC(C)(C)OC(=O)N[C@@H](Cc1ccccc1)[C@@H](O)C[C@]1(Cc2ccccc2)N=CC(C2C[C@H](CC(N)=O)c3ccccc32)C1=O (stereo partly drawn) [tert-butyl N-[(2S,3S)-4-[(2S)-2-benzyl-4-[(3R)-3-(carbamoylmethyl)-2,3-dihydro-1H-inden-1-yl]-3-oxo-2,3-dihydro-1H-pyrrol-2-yl]-3-hydroxy-1-phenylbutan-2-yl]carbamate] | 20.5
O=C(N[C@@H](Cc1ccccc1)[C@@H](O)C[C@]1(Cc2ccccc2)N=CC(C2CNC(=O)c3ccccc32)C1=O)O[C@H]1CCOC1 (stereo partly drawn) [(3S)-oxolan-3-yl N-[(2S,3S)-4-[(2S)-2-benzyl-3-oxo-4-(1-oxo-1,2,3,4-tetrahydroisoquinolin-4-yl)-2,3-dihydro-1H-pyrrol-2-yl]-3-hydroxy-1-phenylbutan-2-yl]carbamate] | 5.7
CC(C)(C)CC(=O)N[C@@H](Cc1ccccc1)[C@@H](O)C[C@]1(Cc2ccccc2)N=CC(C2C[C@H](CC(N)=O)c3ccccc32)C1=O (stereo partly drawn) [N-[(2S,3S)-4-[(2S)-2-benzyl-4-[(3R)-3-(carbamoylmethyl)-2,3-dihydro-1H-inden-1-yl]-3-oxo-2,3-dihydro-1H-pyrrol-2-yl]-3-hydroxy-1-phenylbutan-2-yl]-3,3-dimethylbutanamide] | > 250
O=C(N[C@@H](Cc1ccccc1)[C@@H](O)C[C@]1(Cc2ccccc2)N=CC(C2c3ccccc3[C@H]3NC(=O)O[C@@H]23)C1=O)O[C@H]1CCOC1 (stereo partly drawn) [(3S)-oxolan-3-yl N-[(2S,3S)-4-[(2S)-4-[(3aR,8aS)-2-oxo-2H,3H,3aH,8H,8aH-indeno[1,2-d][1,3]oxazol-8-yl]-2-benzyl-3-oxo-2,3-dihydro-1H-pyrrol-2-yl]-3-hydroxy-1-phenylbutan-2-yl]carbamate] | 0.44
CC(C)(C)OC(=O)N[C@@H](Cc1ccccc1)[C@@H](O)C[C@]1(Cc2ccccc2)N=CC(C2c3ccccc3[C@H]3NC(=O)O[C@@H]23)C1=O (stereo partly drawn) [tert-butyl N-[(2S,3S)-4-[(2S)-4-[(3aR,8aS)-2-oxo-2H,3H,3aH,8H,8aH-indeno[1,2-d][1,3]oxazol-8-yl]-2-benzyl-3-oxo-2,3-dihydro-1H-pyrrol-2-yl]-3-hydroxy-1-phenylbutan-2-yl]carbamate] | 2.5
O=C(N[C@@H](Cc1ccccc1)[C@@H](O)C[C@]1(Cc2ccccc2)N=CC(C2c3ccccc3C[C@H]2O)C1=O)O[C@H]1CCOC1 (stereo partly drawn) [(3S)-oxolan-3-yl N-[(2S,3S)-4-[(2S)-2-benzyl-4-[(2R)-2-hydroxy-2,3-dihydro-1H-inden-1-yl]-3-oxo-2,3-dihydro-1H-pyrrol-2-yl]-3-hydroxy-1-phenylbutan-2-yl]carbamate] | 2

— BindingDB's records for doi:10.1016/j.bmcl.2005.11.011 (University of Pennsylvania, 2006)
